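Step 1: Grow cells in 96-well plates. Step 2: Expose to compound for 48 hours at 5 concentrations. Step 3: Interpolate endpoints linearly; if unreached, use highest concentration. The concentration for 50% growth inhibition is given as GI50.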 Calls of active or inactive are those of the source. No stated cut-off is given here; in the data, active = GI50 up to about 1.1 µM and inactive = higher.
What was measured:
Assay in all cases: NCI anticancer screen, dose series, 48 h
XF498 = tested on: XF498
OVCAR-5 = tested on: OVCAR-5
OVCAR-3 = tested on: OVCAR-3
UO-31 = tested on: UO-31
SF-268 = tested on: SF-268
SK-MEL-5 = tested on: SK-MEL-5
A498 = tested on: A498
KM-20L2 = tested on: KM-20L2
SK-OV-3 = tested on: SK-OV-3
SK-MEL-28 = tested on: SK-MEL-28
ACHN = tested on: ACHN
OVCAR-8 = tested on: OVCAR-8
HCT-116 = tested on: HCT-116
SF-539 = tested on: SF-539
SNB-19 = tested on: SNB-19
LOX IMVI = tested on: LOX IMVI
HCC 2998 = tested on: HCC 2998
LXFL 529 = tested on: LXFL 529
SNB-78 = tested on: SNB-78
UACC-62 = tested on: UACC-62
SF-295 = tested on: SF-295
HOP-62 = tested on: HOP-62
CAKI-1 = tested on: CAKI-1
IGROV-1 = tested on: IGROV-1
RPMI-8226 = tested on: RPMI-8226
OVCAR-4 = tested on: OVCAR-4
SNB-75 = tested on: SNB-75
HL-60 = tested on: HL-60
HT-29 = tested on: HT-29
M14 = tested on: M14
SN12C = tested on: SN12C
TK-10 = tested on: TK-10
HCT-15 = tested on: HCT-15
NCI-H226 = tested on: NCI-H226
U-251 = tested on: U-251
A549 = tested on: A549
CCRF-CEM = tested on: CCRF-CEM
HOP-18 = tested on: HOP-18
HOP-92 = tested on: HOP-92
SW-620 = tested on: SW-620
NCI-H522 = tested on: NCI-H522
SK-MEL-2 = tested on: SK-MEL-2
NCI-H23 = tested on: NCI-H23
MOLT-4 = tested on: MOLT-4
NCI-H460 = tested on: NCI-H460
DLD-1 = tested on: DLD-1
DMS-273 = tested on: DMS-273
UACC-257 = tested on: UACC-257
DMS-114 = tested on: DMS-114
COLO 205 = tested on: COLO 205
786-0 = tested on: 786-0
Malme-3M = tested on: Malme-3M
K562 = tested on: K562
SR = tested on: SR
RXF 393 = tested on: RXF 393
M19-MEL = tested on: M19-MEL
EKVX = tested on: EKVX
KM12 = tested on: KM12

`CC(=O)OC1(C#N)CC2OC1C1N=NN(C(=O)OC(C)(C)C)C21` (stereo not drawn) was tested, and the GI50 (XF498) was 89.7 µM (inactive), the GI50 (OVCAR-5) was > 100 µM (inactive) and the GI50 (OVCAR-3) was 43.1 µM (inactive). For the same molecule, the GI50 (UO-31) was > 100 µM (inactive), the GI50 (SF-268) was 61.1 µM (inactive) and the GI50 (SK-MEL-5) was > 31.6 µM (inactive). For the same molecule, the GI50 (A498) was > 100 µM (inactive), the GI50 (KM-20L2) was > 100 µM (inactive) and the GI50 (SK-OV-3) was > 100 µM (inactive). For the same molecule, the GI50 (SK-MEL-28) was 16.9 µM (inactive), the GI50 (ACHN) was > 100 µM (inactive) and the GI50 (OVCAR-8) was 30.3 µM (inactive). For the same molecule, the GI50 (HCT-116) was 10.9 µM (inactive), the GI50 (SF-539) was 9.75 µM (inactive) and the GI50 (SNB-19) was > 100 µM (inactive). For the same molecule, the GI50 (LOX IMVI) was 17.2 µM (inactive), the GI50 (HCC 2998) was > 100 µM (inactive) and the GI50 (LXFL 529) was 32.3 µM (inactive). For the same molecule, the GI50 (SNB-78) was 21.1 µM (inactive), the GI50 (UACC-62) was 18.8 µM (inactive) and the GI50 (SF-295) was > 100 µM (inactive). For the same molecule, the GI50 (HOP-62) was > 100 µM (inactive), the GI50 (CAKI-1) was > 31.6 µM (inactive) and the GI50 (IGROV-1) was > 31.6 µM (inactive). For the same molecule, the GI50 (RPMI-8226) was 30.3 µM (inactive), the GI50 (OVCAR-4) was 28.4 µM (inactive) and the GI50 (SNB-75) was 70.1 µM (inactive). For the same molecule, the GI50 (HL-60) was 20.6 µM (inactive), the GI50 (HT-29) was > 100 µM (inactive) and the GI50 (M14) was 21.7 µM (inactive). For the same molecule, the GI50 (SN12C) was 39.7 µM (inactive), the GI50 (TK-10) was > 100 µM (inactive) and the GI50 (HCT-15) was 13.8 µM. For the same molecule, the GI50 (NCI-H226) was 3.76 µM (inactive), the GI50 (U-251) was > 100 µM (inactive) and the GI50 (A549) was > 10 µM (inactive). The GI50 (CCRF-CEM) was 15.1 µM (inactive), the GI50 (HOP-18) was > 100 µM (inactive) and the GI50 (HOP-92) was 20.7 µM (inactive). For the same molecule, the GI50 (SW-620) was 14.6 µM (inactive), the GI50 (NCI-H522) was > 100 µM (inactive) and the GI50 (SK-MEL-2) was 11.2 µM (inactive). For the same molecule, the GI50 (NCI-H23) was > 10 µM (inactive), the GI50 (MOLT-4) was 34 µM (inactive) and the GI50 (NCI-H460) was > 100 µM (inactive). The GI50 (DLD-1) was 14.7 µM (inactive), the GI50 (DMS-273) was 36.5 µM (inactive) and the GI50 (UACC-257) was 20.4 µM (inactive). The GI50 (DMS-114) was 13.2 µM (inactive), the GI50 (COLO 205) was > 100 µM (inactive) and the GI50 (786-0) was > 100 µM (inactive). The GI50 (Malme-3M) was 34.7 µM (inactive), the GI50 (K562) was 29.9 µM (inactive) and the GI50 (SR) was 15 µM (inactive). The GI50 (RXF 393) was > 31.6 µM (inactive), the GI50 (M19-MEL) was > 100 µM (inactive) and the GI50 (EKVX) was 55.1 µM (inactive).
For `O=C(C/C(CCC(=O)N(Cc1ccccc1)Cc1ccccc1)=N/Nc1ccc([N+](=O)[O-])cc1[N+](=O)[O-])c1ccccc1`, the GI50 (XF498) was > 100 µM (inactive), the GI50 (OVCAR-5) was > 100 µM (inactive) and the GI50 (OVCAR-3) was > 100 µM (inactive). The GI50 (UO-31) was 35.2 µM (inactive), the GI50 (SF-268) was 38.8 µM (inactive) and the GI50 (KM-20L2) was 33.3 µM (inactive). The GI50 (SK-OV-3) was > 100 µM (inactive), the GI50 (SK-MEL-28) was > 100 µM (inactive) and the GI50 (OVCAR-8) was > 100 µM (inactive). The GI50 (HCT-116) was > 100 µM (inactive), the GI50 (SF-539) was 54 µM (inactive) and the GI50 (SNB-19) was > 100 µM (inactive). The GI50 (LOX IMVI) was 25.4 µM (inactive), the GI50 (HCC 2998) was 74.5 µM (inactive) and the GI50 (LXFL 529) was 25 µM (inactive). The GI50 (SNB-78) was > 100 µM (inactive), the GI50 (UACC-62) was 25.9 µM (inactive) and the GI50 (SF-295) was > 100 µM (inactive). The GI50 (HOP-62) was 70.8 µM (inactive), the GI50 (IGROV-1) was > 100 µM (inactive) and the GI50 (RPMI-8226) was 81.1 µM (inactive). The GI50 (OVCAR-4) was 60.8 µM (inactive), the GI50 (SNB-75) was > 100 µM (inactive) and the GI50 (HL-60) was 41.2 µM (inactive). For the same molecule, the GI50 (HT-29) was 54.1 µM (inactive), the GI50 (M14) was 68.9 µM (inactive) and the GI50 (TK-10) was > 100 µM (inactive). The GI50 (KM12) was 77.1 µM (inactive), the GI50 (HCT-15) was 40.5 µM and the GI50 (NCI-H226) was > 100 µM (inactive). The GI50 (U-251) was > 100 µM (inactive), the GI50 (A549) was 86.1 µM (inactive) and the GI50 (CCRF-CEM) was 35.9 µM (inactive). For the same molecule, the GI50 (HOP-18) was > 100 µM (inactive), the GI50 (HOP-92) was > 100 µM (inactive) and the GI50 (SW-620) was 45.2 µM (inactive). The GI50 (NCI-H522) was > 100 µM (inactive), the GI50 (SK-MEL-2) was > 100 µM (inactive) and the GI50 (NCI-H23) was > 100 µM (inactive). The GI50 (MOLT-4) was 22.8 µM (inactive), the GI50 (NCI-H460) was 92.9 µM (inactive) and the GI50 (DLD-1) was 49.9 µM (inactive). For the same molecule, the GI50 (DMS-273) was > 100 µM (inactive), the GI50 (UACC-257) was > 100 µM (inactive) and the GI50 (DMS-114) was > 100 µM (inactive). For the same molecule, the GI50 (COLO 205) was > 100 µM (inactive), the GI50 (786-0) was > 100 µM (inactive) and the GI50 (Malme-3M) was > 100 µM (inactive). The GI50 (K562) was 28.1 µM (inactive), the GI50 (M19-MEL) was 68.4 µM (inactive) and the GI50 (EKVX) was > 100 µM (inactive).
